Counter-ions that a name gives are not always drawn. The source made the active and inactive calls.
Assays:
[1] = inhibitors of firefly luciferase expression or activity, dose response, H4 neuroglioma cells, luminescence (AID 1990); format: functional, cell-based
[2] = target: Sphingosine 1-phosphate receptor 2 (Homo sapiens, UniProt O95136); assay: Dose Response Cell Based Assay for Antagonists of the S1P2 Receptor. [Related pubchem assays: 856, 736 ]; format: functional
[3] = Luminescence Cell-Based Dose Response HTS to Identify Inhibitors of 5'UTR Stem-Loop Driven Prion Protein mRNA Translation in H4 Neuroglioblastoma Cells. [Related pubchem assays: 1827 (Project Summary), 1813 (Primary HTS)]; format: functional
[4] = inhibitors of SNCA 5'UTR-driven reporter translation, confirmation, H4 neuroglioma cells, luminescence (AID 1988); format: functional, cell-based
[5] = target: Mitogen-activated protein kinase 10 (Homo sapiens, UniProt P53779); assay: Dose response biochemical screening assay for inhibitors of c-Jun N-Terminal Kinase 3 (JNK3). [Related pubchem assays: 746 ]
[6] = P. falciparum 3D7-ScDHODH growth inhibitors, dose response, SYBR Green, dry powder samples (AID 1159570); format: functional, cell-based;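 also: parasite growth measured after 72 hours of compound exposure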
[7] = HepG2 cell cytotoxicity, dose response, cytotoxicity control, plate reader, dry powder samples (AID 1159569); format: functional, cell-based;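 also: inhibitor potency with signal falling toward the positive control level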
[8] = P. falciparum Dd2 growth inhibitors, dose response, SYBR Green, cherry-picked samples (AID 1159567); format: functional, cell-based
[9] = P. falciparum Dd2 growth inhibitors, dose response, SYBR Green, dry powder samples (AID 1159566); format: functional, cell-based;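 also: potency for growth inhibition with lower SYBR green DNA signal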
[10] = HepG2 cell cytotoxicity, dose response, cytotoxicity control, cherry-picked samples (AID 1159577); format: functional, cell-based
[11] = P. falciparum ATP4 D1247Y mutant growth inhibitors, dose response, NITD609-resistant line, SYBR Green, dry powder (AID 1159571); format: functional, cell-based;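 also: parasites synchronized at ring stage by sorbitol before testing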
[12] = target: Paired box protein Pax-8 (Homo sapiens, UniProt Q06710); assay: inhibitors of PAX8-driven TPO luciferase reporter, dose response, RMG-I cells, cherry-pick (AID 687027); format: functional, cell-based;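 also: luciferase reporter driven by Pax8 target thyroperoxidase promoter measured by SteadyGlo luminescence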
[13] = NIH:OVCAR-3 ovarian cancer cell cytotoxicity, dose response, PAX8 inhibitor project, plate reader, dry powder samples (AID 743044); format: functional, cell-based
[14] = cytotoxicity in OVCAR8 ovarian cancer cells, dose response, PAX8 project, cell-based, plate reader, dry powder samples (AID 743197); format: functional; conditions: OVCAR-8
[15] = RKO cell viability reduction, dose response, CellTiter-Glo luminescence (AID 1117322); format: functional
[16] = cytotoxicity toward HCT116 cells – cell-based, CellTiter-Glo luminescence, IC50, dose response (AID 1117332); format: functional; conditions: HCT-116
[17] = SNU-C1 cell viability reduction, dose response, CellTiter-Glo luminescence (AID 1117323); format: functional, cell-based
[18] = half-maximal inhibitory concentration for glucagon-like peptide-1 release, STC-1 cell line, dose-response (AID 1117345); format: functional, cell-based
[19] = cytotoxicity toward Colo320 cells – cell-based, CellTiter-Glo luminescence, IC50, dose response (AID 1117334); format: functional; conditions: COLO 320
[20] = cytotoxicity toward HT-29 cells – cell-based, CellTiter-Glo luminescence, IC50, dose response (AID 1117330); format: functional
[21] = CellTiter-Glo luminescent dose response of DLD-1 viability loss (AID 1117352); format: functional
[22] = Glucagon-like peptide 1 release potency, NCI-H716 cell line, dose-response, half-maximal inhibitory concentration (AID 1117344); format: functional, cell-based
[23] = NIH-3T3 fibroblast cytotoxicity, dose response, cytotoxicity control, cell-based, fluorescence, Alamar Blue, secondary assay (AID 2327); format: functional;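 also: NIH-3T3 mouse fibroblasts cultured with fluconazole at 8 µg/mL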
[24] = C. albicans growth with fluconazole, confirmation, fluorescence, retest (AID 2467); format: functional, cell-based
[25] = microbe, parasite or virus in culture; format: functional; conditions: Mycobacterium tuberculosis
[26] = target: T1, Mannose-6-phosphate isomerase (Homo sapiens, UniProt P34949); assay: human PMI inhibitors, high substrate, primary screen, biochemical, fluorescence intensity, high mannose 6-phosphate (AID 1220)
T1 sequence (P34949 whole entry): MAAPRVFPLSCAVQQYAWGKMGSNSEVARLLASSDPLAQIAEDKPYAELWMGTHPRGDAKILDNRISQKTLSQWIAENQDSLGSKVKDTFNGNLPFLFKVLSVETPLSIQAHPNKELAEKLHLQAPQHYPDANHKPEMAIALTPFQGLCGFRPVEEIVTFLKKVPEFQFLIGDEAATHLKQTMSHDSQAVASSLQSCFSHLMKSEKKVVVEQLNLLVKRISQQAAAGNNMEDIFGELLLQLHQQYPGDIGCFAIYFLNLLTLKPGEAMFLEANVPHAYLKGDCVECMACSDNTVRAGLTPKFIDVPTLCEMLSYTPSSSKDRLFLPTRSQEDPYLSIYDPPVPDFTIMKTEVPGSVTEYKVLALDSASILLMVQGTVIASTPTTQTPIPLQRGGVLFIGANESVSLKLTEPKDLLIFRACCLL

[27] = THP-1 cell cytotoxicity, dose response, cytotoxicity control for non-replicating M. tuberculosis project (AID 489025); format: functional
[28] = HepG2 cell cytotoxicity, dose response, cytotoxicity control for non-replicating M. tuberculosis project (AID 489018); format: functional; conditions: Mycobacterium tuberculosis
[29] = Vero E6 cell cytotoxicity, dose response, cytotoxicity control for non-replicating M. tuberculosis project, secondary assay (AID 492998); format: functional, VeroE6; conditions: Vero C1008
[30] = cells; format: functional
[31] = test system: INS1; assay: beta cell apoptosis inhibitors, cytokine rescue, dose response, luminescence, retest (AID 449756); format: functional, cell-based; conditions: Rattus norvegicus;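 also: cell death triggered by IL-1 beta plus TNF-alpha plus IFN-gamma mixture; protective hits raise ATP signal compared with cytokine alone wells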
[32] = Luminescence Cell-Based Dose Retest to Confirm Inhibitors of Cancer Stem Cells. [Related pubchem assays (depositor defined):AID2717, AID2721]; format: functional; conditions: Homo sapiens
[33] = target: T2, fMet-Leu-Phe receptor (Homo sapiens, UniProt P21462); assay: FPR ligands, dose response (AID 519); format: functional
T2 sequence (P21462 whole entry): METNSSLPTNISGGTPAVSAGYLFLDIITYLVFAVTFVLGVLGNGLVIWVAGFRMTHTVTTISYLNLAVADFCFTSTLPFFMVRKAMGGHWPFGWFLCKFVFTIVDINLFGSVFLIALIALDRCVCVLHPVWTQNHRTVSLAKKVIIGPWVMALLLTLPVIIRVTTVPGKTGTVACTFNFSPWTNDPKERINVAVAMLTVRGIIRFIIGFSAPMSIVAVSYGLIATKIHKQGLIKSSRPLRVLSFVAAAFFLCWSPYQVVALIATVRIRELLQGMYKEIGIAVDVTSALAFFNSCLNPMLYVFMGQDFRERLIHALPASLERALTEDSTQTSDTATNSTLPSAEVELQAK

[34] = P. falciparum Dd2 growth inhibitors, dose response, SYBR Green, dry powder samples, set 9 (AID 1159568); format: functional, cell-based
[35] = Concentration-dependent survival of SW480 colon cancer line, luminescence detection with CellTiter-Glo, half-maximal inhibitory concentration (AID 1117338); format: functional
[36] = HCT116 cell viability decrease, GSK3B pretreatment – CellTiter-Glo, IC50, dose response (AID 1117339); format: functional; conditions: HCT-116
[37] = A549 cell cytotoxicity, dose response, cytotoxicity control, plate reader, cherry-pick, antagonist series (AID 743412); format: functional, cell-based
[38] = HepG2 cell cytotoxicity, dose response, cytotoxicity control, plate reader, cherry-pick, antagonist series (AID 743416); format: functional, cell-based
[39] = LGR2 antagonists, dose response, cell-based, HEK293, CRE-luciferase reporter, cherry pick, set 2 (AID 743343); format: functional;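 also: transfected cells were stimulated with diluted bursicon conditioned medium after compound addition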
[40] = MC4R antagonists, dose response, counter-screen for LGR2 antagonist project, cell-based, plate reader, cherry pick (AID 743444); format: functional;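 also: transfected HEK 293 cells stimulated with alpha-MSH peptide; potency of inhibitors of the alpha-MSH evoked signal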

Chain of Mitogen-activated protein kinase 10 (P53779 whole entry): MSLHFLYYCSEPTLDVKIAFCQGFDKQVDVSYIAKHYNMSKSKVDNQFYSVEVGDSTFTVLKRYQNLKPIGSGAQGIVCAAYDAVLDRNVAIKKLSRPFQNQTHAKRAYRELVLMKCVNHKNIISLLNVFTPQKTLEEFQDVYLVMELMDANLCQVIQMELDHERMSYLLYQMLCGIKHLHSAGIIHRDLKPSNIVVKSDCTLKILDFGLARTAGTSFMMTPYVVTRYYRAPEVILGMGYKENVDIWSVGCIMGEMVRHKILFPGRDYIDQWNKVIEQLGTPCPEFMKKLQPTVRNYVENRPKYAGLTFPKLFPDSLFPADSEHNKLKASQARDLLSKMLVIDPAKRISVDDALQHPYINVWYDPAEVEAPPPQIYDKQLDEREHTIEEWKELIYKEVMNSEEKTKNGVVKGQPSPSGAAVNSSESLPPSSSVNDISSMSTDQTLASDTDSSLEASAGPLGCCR
Chain of Paired box protein Pax-8 (Q06710 whole entry): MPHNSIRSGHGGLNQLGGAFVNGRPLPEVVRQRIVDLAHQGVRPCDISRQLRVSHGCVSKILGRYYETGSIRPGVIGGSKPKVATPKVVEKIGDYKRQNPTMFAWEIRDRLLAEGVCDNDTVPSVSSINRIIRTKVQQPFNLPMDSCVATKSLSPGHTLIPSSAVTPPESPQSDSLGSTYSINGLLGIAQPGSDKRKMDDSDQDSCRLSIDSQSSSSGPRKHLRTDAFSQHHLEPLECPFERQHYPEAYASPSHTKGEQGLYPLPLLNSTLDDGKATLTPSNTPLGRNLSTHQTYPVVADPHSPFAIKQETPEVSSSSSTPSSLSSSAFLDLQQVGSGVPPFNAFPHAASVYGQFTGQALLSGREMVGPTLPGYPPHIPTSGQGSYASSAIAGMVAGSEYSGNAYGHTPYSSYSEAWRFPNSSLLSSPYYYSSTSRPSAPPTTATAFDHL
Chain of Sphingosine 1-phosphate receptor 2 (O95136 whole entry): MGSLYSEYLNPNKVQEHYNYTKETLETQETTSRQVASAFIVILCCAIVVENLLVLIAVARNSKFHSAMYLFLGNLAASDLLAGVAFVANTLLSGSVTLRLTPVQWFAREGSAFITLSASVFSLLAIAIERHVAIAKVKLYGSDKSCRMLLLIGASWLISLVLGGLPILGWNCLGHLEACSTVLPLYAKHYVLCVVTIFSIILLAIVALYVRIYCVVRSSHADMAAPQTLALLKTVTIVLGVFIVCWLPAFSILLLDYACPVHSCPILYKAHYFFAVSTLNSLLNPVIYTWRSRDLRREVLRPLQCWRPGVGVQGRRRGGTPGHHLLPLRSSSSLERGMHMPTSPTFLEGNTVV

O=C(c1cc(NC(=O)C23CC4CC(CC(C4)C2)C3)cc(NC(=O)C23CC4CC(CC(C4)C2)C3)c1)N1CCCCC1
EC50 [1]: 17.1 µM (active)
IC50 [2]: 0.977 µM (active)
EC50 [3]: 15.7 µM (active)
EC50 [4]: 12.2 µM (inconclusive)

Cc1ccccc1Nc1nn2c(=O)c3ccccc3nc2s1
IC50 [5]: 39.3 µM (not active)

C[C@@H]1CN([C@H](C)CO)S(=O)(=O)c2ccc(C#Cc3ccncc3)cc2O[C@H]1CN(C)S(=O)(=O)c1ccc(F)cc1
AC50 [6]: 0.682 µM (active)
AC50 [7]: 3.66 µM (active)
AC50 [8]: 2.17 µM (active)
AC50 [9]: 1.14 µM (active)
AC50 [10]: > 39 µM (inactive)
AC50 [11]: 1.17 µM (active)

C[C@@H]1CN([C@@H](C)CO)C(=O)Cc2cc(NC(=O)Cc3cn(C)c4ccccc34)ccc2O[C@H]1CN(C)Cc1ccc(Oc2ccccc2)cc1
AC50 [12]: 7.45 µM (active)
AC50 [13]: 22.6 µM (active)
AC50 [14]: 43.1 µM (active)
AC50 [6]: 1.6 µM (active)
AC50 [7]: 22.2 µM (active)
AC50 [8]: 1.34 µM (active)
AC50 [9]: 1.05 µM (active)
AC50 [10]: > 39 µM (inactive)
AC50 [11]: 1.65 µM (active)

COc1ccc(CNC(=O)c2cnn3c(C(F)F)cc(C)nc23)cc1OC
IC50 [5]: > 31 µM (not active)

OC1(c2ccc(Cl)c(C(F)(F)F)c2)CCN(CCCC(c2ccc(F)cc2)c2ccc(F)cc2)CC1 [PENFLURIDOL]
IC50 [15]: 0.971 µM (active)
IC50 [16]: 1.85 µM (active)
IC50 [17]: 0.168 µM (active)
IC50 [18]: > 40 µM (inactive)
IC50 [19]: 0.962 µM (active)
IC50 [20]: 0.946 µM (active)
IC50 [21]: 1.14 µM (active)
IC50 [22]: 8.45 µM (inactive)

CCOC(=O)N1CCN(Cc2cc(Cl)c3cccnc3c2O)CC1
EC50 [23]: > 150 µM (inactive)
EC50 [24]: 1.28 µM (active)
CC50 [25]: 4.95 µM (active)
IC50 [26]: 11.8 µM (active)
CC50 [27]: 4.35 µM (active)
CC50 [28]: 11 µM (active)
CC50 [29]: 2.64 µM (active)
IC50 [30]: 10.9 µM (active)
AC50 [31]: 3.13 µM (active)

N#CCCC12CCCCC1=Nc1ccccc12 (stereo unspecified)
IC50 [5]: > 93.1 µM (not active)

C#CC1(O)CC[C@H]2[C@@H]3CCC4=CCCC[C@@H]4[C@H]3CC[C@@]21C (stereo partly specified)
IC50 [18]: > 40 µM (inactive)
IC50 [22]: 27.5 µM (inactive)

O=C(NCCN1CCOCC1)NC1(C(F)(F)F)Oc2ccc(Cl)cc2O1 (stereo unspecified)
IC50 [26]: > 50 µM (not active)
AC50 [32]: 7.37 µM (active)
Ki [33]: > 66.7 µM (inactive)

Cc1ccc(S(=O)(=O)N(C)C[C@H]2Oc3cc(C#CC4CCCC4)ccc3S(=O)(=O)N([C@@H](C)CO)C[C@H]2C)cc1
AC50 [34]: 3.42 µM (active)

C[C@@H]1CN([C@@H](C)CO)C(=O)c2ccccc2-c2ccccc2CO[C@H]1CN(C)C(=O)Nc1cccc(Cl)c1Cl
AC50 [6]: 0.0978 µM (active)
AC50 [7]: > 100 µM (inactive)
AC50 [8]: 0.418 µM (active)
AC50 [9]: 0.107 µM (active)
AC50 [11]: 0.437 µM (active)

O=C(NC1CCN(CCc2c[nH]c3ccccc23)CC1)c1ccccc1 [INDORAMIN HYDROCHLORIDE]
IC50 [35]: > 20 µM (inactive)
IC50 [15]: > 20 µM (inactive)
IC50 [17]: > 20 µM (inactive)
IC50 [19]: > 20 µM (inactive)
IC50 [20]: > 20 µM (inactive)
IC50 [21]: > 20 µM (inactive)
IC50 [36]: > 20 µM (inactive)

C[C@@H]1CN([C@@H](C)CO)C(=O)c2cccc(NC(=O)c3ccc(-c4nccs4)cc3)c2O[C@@H]1CN(C)C(=O)Nc1ccc(C(F)(F)F)cc1
AC50 [37]: 25.5 µM (active)
AC50 [38]: 33.2 µM (active)
AC50 [39]: 43.7 µM (active)
AC50 [40]: 54.1 µM (active)
AC50 [34]: 2.16 µM (active)

O=C(C[C@@H]1C[C@H]2c3cc(NC(=O)c4ccc5c(c4)OCO5)ccc3O[C@H]2[C@@H](CO)O1)NCc1ccc(Oc2ccccc2)cc1
AC50 [37]: 35.3 µM (active)
AC50 [38]: 20.5 µM (active)
AC50 [39]: 32.7 µM (active)
AC50 [34]: > 39 µM (inactive)

CN1CCN(c2cc3c(nn2)Oc2ccccc2N3C)CC1 [PIPOFEZINE]
IC50 [35]: > 20 µM (inactive)
IC50 [15]: > 20 µM (inactive)
IC50 [16]: > 20 µM (inactive)
IC50 [17]: > 20 µM (inactive)
IC50 [19]: > 20 µM (inactive)
IC50 [20]: > 20 µM (inactive)
IC50 [21]: > 20 µM (inactive)
IC50 [36]: > 20 µM (inactive)

Clc1ccc(C(Cn2ccnc2)OCc2ccc(Sc3ccccc3)cc2)c(Cl)c1 (stereo unspecified) [FENTICONAZOLE]
IC50 [35]: 7.44 µM (inactive)
IC50 [15]: 6.14 µM (inactive)
IC50 [16]: 7.71 µM (inactive)
IC50 [19]: 7.06 µM (inactive)
IC50 [20]: > 20 µM (inactive)
IC50 [21]: 7.76 µM (inactive)
IC50 [36]: 6.77 µM (inactive)
